pIC50: −log10 of the molar value. The source made the active and inactive calls. No cut-off for these calls is given here.
Columns and labels:
Phosphoheptose isomerase = Phosphoheptose isomerase (Escherichia coli (strain K12), UniProt P63224); design: species or system K96243
HepG2 = assay: Cytotoxicity against human HepG2 cells incubated overnight by Celltiter aqueous one solution cell proliferation assay; format: functional
Escherichia coli [1] = assay: Potentiation of erythromycin induced antibacterial activity against Escherichia coli C7 (018:K1:H7) assessed as erythromycin MIC incubated overnight by two fold serial dilution assay; format: functional
Escherichia coli [2] = assay: Potentiation of rifampicin induced antibacterial activity against Escherichia coli C7 (018:K1:H7) assessed as rifampicin MIC incubated overnight by two fold serial dilution assay; format: functional
Escherichia coli [3] = assay: Antibacterial activity in Escherichia coli C7 (018:K1:H7) assessed as reduction in bacterial growth at 300 uM measured after 24 hrs by time-kill kinetics assay; format: functional, organism-based

Chain of Phosphoheptose isomerase (P63224 whole entry, looked up): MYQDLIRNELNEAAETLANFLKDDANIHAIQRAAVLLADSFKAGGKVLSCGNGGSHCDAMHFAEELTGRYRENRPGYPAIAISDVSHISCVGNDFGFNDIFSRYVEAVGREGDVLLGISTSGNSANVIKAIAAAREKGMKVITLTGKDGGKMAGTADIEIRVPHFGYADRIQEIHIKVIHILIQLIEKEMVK

Molecule `O=CN(O)C[C@H](O)[C@H](O)[C@H](O)COP(=O)(O)O` has a pIC50 (Phosphoheptose isomerase) of 8.70, a CC50 (HepG2) of over 1000 µM and an MIC (Escherichia coli [1]) of 1 µg/mL. For the same molecule, the MIC (Escherichia coli [2]) was 0.25 µg/mL and the Activity (Escherichia coli [3]) was “inactive”.

Molecule `O=CN(O)C[C@H](O)[C@H](O)[C@H](O)CCP(=O)(O)O` has a CC50 (HepG2) of over 1000 µM.
